The source of these data is patent US6130053A, “Method for selecting compounds for inhibition of neoplastic lesions” (priority 1999, dated 2000).

For assay [1], the system named is PSA (prostate specific antigen) level. In words: Human clinical trial post-prostatectomy, PSA level. In kind it is in vivo. Here is the method: A separate clinical trial was also performed on male patients who had prostate cancer, and as a result had their prostates removed. The study was conducted in patients with detectable PSA (prostate specific antigen) levels that were rising following radical prostatectomy, indicating recurrence of prostate cancer.
96 patients were enrolled in the prostate study: a double-blind, placebo-controlled, multi-center trial involving exisulind administered to the drug-receiving patients at 500 mg/day. […] Although a rising level of PSA is not itself a disease condition, it is widely regarded in the medical community as a surrogate marker indicative of the presence of recurrence of prostate cancer in such men.
In addition to performing an analysis based on the differences in mean PSA levels between the exisulind and placebo groups as a whole, the interim analysis included subgroup analysis. The patients in the study were classified into high, intermediate and low risk groups in terms of their risk of developing metastatic disease. This classification was performed by a researcher at Johns Hopkins University, using the methodology published by them and other Johns Hopkins' researchers in the Journal of the American Medical Association (JAMA May 5, 1999, pp. 1591-97). To ascertain which study patients fell into which risk group, medical histories were supplied to the researcher who was blinded as to whether patients were on drug or placebo; they assigned study patients to the appropriate risk groups according to the above referenced published methodology.

Assay [2] addresses T1, COX-I (purified cyclooxygenase Type 1) (Ovis aries, UniProt P05979).
T1 construct: purified cyclooxygenase from ram seminal vesicles; from tissue; host or cells: ram seminal vesicles
T1 sequence (P05979 25-600): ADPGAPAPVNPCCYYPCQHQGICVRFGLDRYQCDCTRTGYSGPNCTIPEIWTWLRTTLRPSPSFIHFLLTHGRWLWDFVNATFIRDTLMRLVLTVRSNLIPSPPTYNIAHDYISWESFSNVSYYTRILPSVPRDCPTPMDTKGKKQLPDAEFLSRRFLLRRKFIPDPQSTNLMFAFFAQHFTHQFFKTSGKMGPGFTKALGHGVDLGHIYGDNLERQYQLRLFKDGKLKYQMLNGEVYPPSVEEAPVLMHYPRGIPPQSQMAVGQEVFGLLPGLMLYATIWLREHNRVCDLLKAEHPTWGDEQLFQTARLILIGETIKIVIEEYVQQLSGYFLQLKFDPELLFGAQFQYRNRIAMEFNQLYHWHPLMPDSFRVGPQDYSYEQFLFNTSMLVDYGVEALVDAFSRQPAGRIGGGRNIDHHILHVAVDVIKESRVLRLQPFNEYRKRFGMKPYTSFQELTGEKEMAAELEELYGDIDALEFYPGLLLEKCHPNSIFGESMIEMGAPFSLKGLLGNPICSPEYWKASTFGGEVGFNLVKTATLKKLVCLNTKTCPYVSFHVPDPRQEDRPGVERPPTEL
In words: COX inhibition assay, purified cyclooxygenase (Type 1). In kind it is biochemical, ram. The conditions noted are these: FIG. 4.

In the next assay the test system is HT-29 cells. In words: Growth inhibition of HT-29 cells. In kind it is cell-based, human. The conditions noted are these: HT-29.
Assay [3] has as its system PKG activity in HCT116 cells. Description: PKG activity in HCT116 cells. Format: cell-based. An excerpt: To test the effect of cGMP-specific PDE inhibition on neoplasia containing the β-catenin mutation, HCT116 colon cancer cells were employed. HCT116 is known to contain the β-catenin mutation, but is known not to contain the APC mutation.
The same procedure is used to grow the HCT116 cells as is used in the SW480 procedure described above. In this experiment, only exisulind and controls were used.

The subject of a further assay is PKG in SW480 cells. Description: PKG expression by Western blot in SW480 cells. Format: cell-based, human. The conditions noted are these: 48 hours. Here is the method:
This increase in PKG protein expression was further verified by relatively quantative western blot, as described below.
SW480 cells treated with exisulind as described previously are harvested from the microfuge tubes by rinsing once with ice-cold PBS. The cells are lysed by modified RIPA buffer for 15 minutes with agitation. The cell lysate is spun down in a cold room. The supernatants are transferred to fresh microcentrifuge tubes immediately after spinning. BioRad DC Protein Assay (Temecula, Calif.) is performed to determine the protein concentrations in samples. The samples are normalized for protein concentration, as described above.
50 μg of each sample is loaded to 10% SDS gel. SDS-PAGE is performed, and the proteins then are transferred to a nitrocellulose membrane. The blotted nitrocellulose membrane are blocked in freshly prepared TBST containing 5% nonfat dry milk for one hour at room temperature with constant agitation.
A goat-anti-PKG primary antibody is diluted to the recommended concentration/dilution in fresh TBST/5% nonfat dry milk. The nitrocellulose membrane is placed in the primary antibody solution and incubated one hour at room temperature with agitation. The nitrocellulose membrane is washed three times for ten minutes each with TBST. […]

Assay [4] deals with colon, breast, lung, prostate, kidney, and melanoma neoplasias. To be noted: cited from earlier work.
The subject of assay [5] is polyp formation in adenomatous polyposis coli patients. In words: Human clinical study in APC patients, polyp formation. Format: in vivo. Here is the method: A human clinical study was performed in APC patients, selecting exisulind in each instance. In that study, each patient had already had his/her colon removed, except for a small section of colon adjacent the rectum (where the small intestine was attached) to preserve rectal function. However, such a patient commonly forms polyps in the small remaining colonic section, which polyps require periodic removal (e.g., by electrocautery).
That trial where exisulind was selected was a prevention trial designed to compare the cumulative number of new polyps formed over twelve months by the drug and placebo groups. Eligible patients were those who form between 9 and 44 polyps per year. Patients were fully ablated (had all polyps removed) at the start of the study, at the end of 6 months and at the end of 12 months. The study enrolled thirty-four eligible patients. […] Based on the median number of polyps produced in the first six months of the study, patients treated with exisulind developed approximately one-third the number of polyps as patients treated with placebo (median values 9 polyps/year and 26 polyps/year, respectively; p=0.013). Based on the median number of polyps produced over the entire 12 months of the study, patients treated with exisulind produced approximately half the number of polyps as patients treated with placebo (median values 18 polyps/year and 38 polyps/year, respectively; p=0.020).

The test system of a further assay is cGMP PDE. Description: cGMP PDE inhibition assay, enzyme purified from HT-29 cultured tumor cells. Format: biochemical, human.

“Also recorded” adds a separate entry of the source. Bounds are passed on as bounds.

Procedure for cGMP PDE: The mixture is incubated at 30° C. for 10 minutes with isolated PDE of this invention. Reactions are terminated, for example, by boiling the reaction mixture for 75 seconds. After cooling on ice, 100 μl of 0.5 mg/ml snake venom (O. Hannah venom available from Sigma) is added and incubated for 10 minutes at 30° C. This reaction is then terminated by the addition of an alcohol, e.g. 1 ml of 100% methanol. Assay samples are applied to 1 ml Dowex 1-X8 column; and washed with 1 ml of 100% methanol. The amount of radioactivity in the breakthrough and the wash from the column is combined and measured with a scintillation counter. The degree of phosphodiesterase inhibition is determined by calculating the amount of radioactivity in drug-treated reactions and comparing against a control sample (a reaction mixture lacking the tested compound but with drug solvent).

Broadly, the IC50 is the midpoint of a concentration-inhibition curve. Low readings indicate higher potency, high ones lower potency. As to `CC1=C(CC(=O)O)c2cc(F)ccc2/C1=C\c1ccc(S(C)(=O)=O)cc1` [Exisulind, 5-fluoro-2-methyl-1-(p-methylsulfonylbenzylidene)-3-indenylacetic acid], the “PSA levels vs placebo” value in assay [1] (500 mg/day) was “significantly reduced as compared with the PSA levels of the placebo-treated group; also recorded: statistically significant differences in mean PSA levels between exisulind and placebo patients in both high and intermediate risk groups”. For the same compound, the “Mean PSA level, High Risk” value in assay [1] (500 mg/day, High Risk, placebo 4.98) is recorded as 2.91. For the same compound, the “Mean PSA level, Intermediate Risk” value in assay [1] (500 mg/day, Intermediate Risk, placebo 6.24) is listed as 2.95. In addition, in assay [1] (500 mg/day, Overall, placebo 4.49), the “Mean PSA level, Overall” value was determined as 2.85. Moreover, the “"p" value, mean PSA, High Risk” value in assay [1] (vs placebo, High Risk) was determined as 0.0002. Further, the “"p" value, mean PSA, Intermediate Risk” value in assay [1] (vs placebo, Intermediate Risk) came to 0.0053. Besides, the “"p" value, mean PSA, Overall” value in assay [1] (vs placebo, Overall) is on record as 0.0004. Moreover, the IC50 in assay [2] was > 10 mM. Further, the “tumor cell growth inhibition” value with HT-29 cells is listed as “capable of inhibiting tumor cell growth”. The “PKG activity relative to control” value in assay [3] was “phosphorylated to a greater extent than the corresponding controls”. In addition, the “PKG level by Western blot” value in the assay on PKG in SW480 cells is “increase of PKG”. For the same compound, the “reported anti-neoplastic effects” value in assay [4] is “anti-neoplastic effects on colon, breast, lung, prostate, kidney, and melanoma neoplasias”. Also, the “number of polyps relative to placebo, 12 months” value in assay [5] (entire 12 months) is reported as “approximately half”. Further, in assay [5] (entire 12 months, placebo 38 polyps/year), the “median number of polyps, 12 months” value was found to be 18 polyps/year. For the same compound, the “number of polyps relative to placebo, first six months” value in assay [5] (first six months) is “approximately one-third”. For the same compound, in assay [5] (first six months, placebo 26 polyps/year), the “median number of polyps, first six months” value is given as 9 polyps/year. In assay [5] (vs placebo), the “decrease of rate of polyp formation” value was “clinically and statistically significantly better than placebo in decreasing the rate of polyp formation”. For the same compound, the “selectivity cGMP PDE over PDE4” value in the assay on cGMP PDE is “selectivity for the cGMP PDE isoenzyme forms over PDE4 isoforms”.
